In patent US20070185161A1, “Bicyclic substituted indole-derivative steroid hormone nuclear receptor modulators” (priority 2004, published 2007):

Target: T1, human MR (Homo sapiens, UniProt P08235)
T1 construct: The full length human MR gene is cloned from a human kidney or human brain cDNA library; made in house; host or cells: SF9 insect cells (baculovirus)
T1 sequence (P08235 1-984): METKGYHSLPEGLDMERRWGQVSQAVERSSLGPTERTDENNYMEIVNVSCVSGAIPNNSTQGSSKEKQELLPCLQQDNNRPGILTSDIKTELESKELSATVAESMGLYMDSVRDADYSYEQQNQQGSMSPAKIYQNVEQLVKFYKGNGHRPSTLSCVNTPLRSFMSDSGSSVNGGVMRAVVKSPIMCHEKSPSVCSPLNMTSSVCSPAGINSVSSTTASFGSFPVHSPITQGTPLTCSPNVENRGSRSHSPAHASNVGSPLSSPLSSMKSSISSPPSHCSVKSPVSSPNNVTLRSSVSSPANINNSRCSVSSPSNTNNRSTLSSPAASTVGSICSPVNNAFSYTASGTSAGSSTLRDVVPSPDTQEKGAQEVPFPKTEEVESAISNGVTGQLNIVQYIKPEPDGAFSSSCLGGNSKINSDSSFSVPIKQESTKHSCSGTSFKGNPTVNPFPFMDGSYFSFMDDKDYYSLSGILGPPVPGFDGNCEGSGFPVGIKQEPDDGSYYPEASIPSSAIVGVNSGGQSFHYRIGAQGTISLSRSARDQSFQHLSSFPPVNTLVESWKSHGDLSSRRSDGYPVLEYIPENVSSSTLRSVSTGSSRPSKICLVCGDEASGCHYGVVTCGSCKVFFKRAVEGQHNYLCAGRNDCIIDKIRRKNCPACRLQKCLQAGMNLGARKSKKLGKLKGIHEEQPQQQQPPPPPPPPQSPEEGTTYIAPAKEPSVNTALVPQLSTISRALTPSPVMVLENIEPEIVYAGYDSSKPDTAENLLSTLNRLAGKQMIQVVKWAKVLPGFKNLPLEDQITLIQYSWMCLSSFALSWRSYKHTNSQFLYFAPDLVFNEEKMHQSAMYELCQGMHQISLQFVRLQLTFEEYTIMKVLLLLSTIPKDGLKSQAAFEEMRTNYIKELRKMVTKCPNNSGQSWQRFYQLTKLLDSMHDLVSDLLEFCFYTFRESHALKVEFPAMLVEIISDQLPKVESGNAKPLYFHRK
Assay: Mineralocorticoid Receptor Binding Assay (Method 1)
Conditions: [3H]-aldosterone, racemic mixture unless otherwise indicated
Method: The full length human MR gene is cloned from a human kidney or human brain cDNA library. Briefly, using synthetic oligonucleotide primers (Eli Lilly and Company, Indianapolis) directed to nucleotides 20-54 and 3700-3666 of the human MR, polymerase chain reaction (PCR) is performed under standard conditions using a human cDNA library. The PCR reaction is performed in a final volume of 50 μl containing about 1 μl of a 50× stock solution of polymerase; about 1 μl of a 50× stock solution of dNTP; about 5 μl of an appropriate PCR buffer; about 1 μl of each primer; about 5 μl of a H. kidney or H. brain cDNA library; and about 36 μl of water. The reaction is allowed to denature for about 30 seconds at 95 degrees Celsius, anneal for about 30 seconds at 55 degrees Celsius, and extend for about 5 minutes at 72 degrees Celsius, the sequence being repeated for a total of about 35 cycles. The desired PCR product (3.68 Kb) is confirmed by gel electrophoresis and subsequently cut from the gel and stored at about −20 degrees Celsius until extraction. To extract the cDNA product from the agarose gel, the QIAEX II Gel Extraction protocol (QIAGEN, Inc.) is employed according to the manufacturer's instructions. Following extraction, the MR cDNA is cloned into an appropriate cloning vector (Zero Blunt TOPO PCR Cloning Kit (Invitrogen, Inc.) and a pAcHLT-baculovirus transfer vector (B.D./Pharminogen), then expressed in SF9 insect cells, essentially according to manufacturer's instructions. Sf9 cells are grown at a scale where gram quantity cell pellets are obtained for subsequent use in the MR binding assay. Harvested cell pellets are lysed by repeated freeze-thaw cycles (about 4) in a suitable lysis buffer then centrifuged at about 1×10^3 G (with the supernatant being saved for future assays).
MR binding assays are performed in a final total volume of about 250 μl containing about 20-25 μg of protein and 0.5 nM of [^3H]-aldosterone plus varying concentrations of test compound or vehicle. The assay binding buffer consists of 30 mM sodium molybdate, 30 mM of TRIS-HCl, 5 mM sodium phosphate, 5 mM sodium pyrophosphate, and about 10% glycerol, pH=7.5.
Briefly, assays are prepared at RT in 96-well Falcon 3072 plates, each well containing 210 μl of binding buffer, 10 μl of [^3H]-aldosterone, 10 μl of test compound/vehicle, and 20 μl of the resuspended receptor protein extract. Incubations are carried out at 4 degrees Celsius with shaking for about 16 hours. 200 μl aliquots of each incubation are filtered onto Millipore HA 0.45 micron 96-well filter plates, pre-moistened with cold 30 mM TRIS-HCl. The filter plates are suctioned dry with vacuum and immediately washed 3× with cold 30 mM TRIS-HCl. The plates are then punched out and the amount of receptor-ligand complex is determined by liquid scintillation counting using 4 ml of Ready Protein Plus™ liquid scintillation cocktail.
IC50 values (defined as the concentration of test compound required to decrease [^3H]-aldosterone binding by 50%) are then determined. Ki values for each respective test compound can then be calculated by application of the Cheng-Prusoff equation as described in Cheng et al., Relationship Between The Inhibition Constant (Ki) and The Concentration of Inhibitor Which Causes 50% Inhibition (IC50) of an Enzymatic Reaction, Biochem. Pharmacol., 22: 3099-31088; (1973).
In the case of `CC1(c2c[nH]c3c(NS(C)(=O)=O)cccc23)CCCc2cc(F)cc(F)c21` (racemic) [Example 30, N-[3-(6,8-Difluoro-1-methyl-1,2,3,4-tetrahydro-naphthalen-1-yl)-1H-indol-7-yl]-methanesulfonamide], the Ki is reported as no more than 500 nM. `CC1(c2c[nH]c3c(NS(C)(=O)=O)cccc23)CCCc2cc(F)cc(F)c21` (single isomer, unassigned) [Example 30A, N-[3-(6,8-Difluoro-1-methyl-1,2,3,4-tetrahydro-naphthalen-1-yl)-1H-indol-7-yl]-methanesulfonamide] gave a Ki of no more than 500 nM. Compound `CC1(c2c[nH]c3c(NS(C)(=O)=O)cccc23)CCCc2cc(F)cc(F)c21` (single isomer, unassigned) [Example 30B, N-[3-(6,8-Difluoro-1-methyl-1,2,3,4-tetrahydro-naphthalen-1-yl)-1H-indol-7-yl]-methanesulfonamide] has a Ki of no more than 500 nM. `CCC1(c2c[nH]c3c(NS(C)(=O)=O)cccc23)CCCc2cc(F)cc(F)c21` (single isomer, unassigned) [Example 31A, N-[3-(1-Ethyl-6,8-difluoro-1,2,3,4-tetrahydro-naphthalen-1-yl)-1H-indol-7-yl]-methanesulfonamide] showed a Ki of no more than 500 nM. `CCC1(c2c[nH]c3c(NS(C)(=O)=O)cccc23)CCCc2cc(F)cc(F)c21` (single isomer, unassigned) [Example 31B, N-[3-(1-Ethyl-6,8-difluoro-1,2,3,4-tetrahydro-naphthalen-1-yl)-1H-indol-7-yl]-methanesulfonamide] showed a Ki of no more than 500 nM. Compound `CCC1(c2c[nH]c3ccccc23)CCc2cc(F)ccc21` (centres unmarked) [Example 6, 3-(1-Ethyl-5-fluoro-indan-1-yl)-1H-indole] has a Ki of no more than 500 nM. `CCC1(c2c[nH]c3c(F)cccc23)CCc2cc(F)ccc21` (centres unmarked) [Example 7, 3-(1-Ethyl-5-fluoro-indan-1-yl)-7-fluoro-1H-indole] showed a Ki of no more than 500 nM. `CCC1(c2c[nH]c3c(Br)cccc23)CCc2cc(F)ccc21` (centres unmarked) [Example 8, 7-Bromo-3-(1-ethyl-5-fluoro-indan-1-yl)-1H-indole] showed a Ki of no more than 500 nM. Compound `CCC1(c2c[nH]c3c(Cl)cccc23)CCc2cc(F)ccc21` (centres unmarked) [Example 9, 7-Chloro-3-(1-ethyl-5-fluoro-indan-1-yl)-1H-indole] has a Ki of no more than 500 nM. Work on `CCc1cccc2c(C3(CC)CCc4cc(F)ccc43)c[nH]c12` (centres unmarked) [Example 10, 7-Ethyl-3-(1-ethyl-5-fluoro-indan-1-yl)-1H-indole] yielded a Ki of no more than 1000 nM. For `CCC1(c2c[nH]c3c(OC)cccc23)CCc2cc(F)ccc21` (centres unmarked) [Example 12, 3-(1-Ethyl-5-fluoro-indan-1-yl)-7-methoxy-1H-indole], the Ki was no more than 500 nM.

Target: T2, human GR (glucocorticoid receptor) (Homo sapiens, UniProt P04150)
T2 construct: expressed in transfected cells; host or cells: 293 cells
T2 sequence (P04150 1-777): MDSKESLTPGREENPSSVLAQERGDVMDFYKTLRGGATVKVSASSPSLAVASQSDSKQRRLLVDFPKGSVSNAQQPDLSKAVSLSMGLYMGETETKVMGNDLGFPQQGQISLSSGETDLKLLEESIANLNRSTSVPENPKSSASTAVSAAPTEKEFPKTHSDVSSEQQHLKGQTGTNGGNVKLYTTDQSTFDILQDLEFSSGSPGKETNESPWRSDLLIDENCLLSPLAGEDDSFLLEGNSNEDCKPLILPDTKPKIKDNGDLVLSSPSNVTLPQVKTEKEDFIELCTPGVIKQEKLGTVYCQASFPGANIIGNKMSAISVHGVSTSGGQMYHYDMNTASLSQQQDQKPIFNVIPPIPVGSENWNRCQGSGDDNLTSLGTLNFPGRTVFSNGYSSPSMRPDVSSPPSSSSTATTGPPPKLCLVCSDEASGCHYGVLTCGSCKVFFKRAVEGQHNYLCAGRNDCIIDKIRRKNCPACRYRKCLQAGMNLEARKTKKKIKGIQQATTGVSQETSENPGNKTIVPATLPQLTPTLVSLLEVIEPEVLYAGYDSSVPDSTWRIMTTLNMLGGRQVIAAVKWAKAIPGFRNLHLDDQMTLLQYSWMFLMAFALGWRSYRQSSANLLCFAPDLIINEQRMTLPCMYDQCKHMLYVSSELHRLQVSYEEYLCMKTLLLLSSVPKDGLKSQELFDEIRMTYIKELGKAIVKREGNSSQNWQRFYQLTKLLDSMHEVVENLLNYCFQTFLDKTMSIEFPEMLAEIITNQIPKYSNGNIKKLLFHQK
Assay: Alternative Binding Assay Protocol (Method 2), GR
Conditions: 3H-dexamethasone, 293-GR lysate, racemic mixture unless otherwise indicated
Method: Cell lysates from 293 cells overexpressing human GR (glucocorticoid receptor), AR (androgen receptor), MR (mineralocorticoid receptor) or PR (progesterone receptor) are used for competition binding assays to determine Ki values for test compounds. Briefly, competition binding assays are run in a buffer containing 20 mM Hepes, pH 7.6, 0.2 mM EDTA, 75 mM NaCl, 1.5 mM MgCl2, 20% glycerol, 20 mM sodium molybdate, 0.2 mM DTT, 20 ug/ml aprotinin and 20 ug/ml leupeptin, using either 0.3 nM ^3H-dexamethasone for GR binding, 0.36 nM ^3H-methyltrienolone for AR binding, 0.25 nM ^3H-aldosterone for MR binding, or 0.29 nM ^3H-methyltrienolone for PR binding, and either 20 ug 293-GR lysate, 22 ug 293-AR lysate, 20 ug 293-MR lysate or 40 ug 293-PR lysate per well. Competing compounds are added at various concentraions in half-log increments. Non-specific binding is determined in the presence of 500 nM dexamethasone for GR binding, 500 nM aldosterone for MR binding, or 500 nM methyltrienolone for AR and PR binding,. The binding reaction (140 μl) is incubated for overnight at […], then 70 μl of cold charcoal-dextran buffer (containing per 50 ml of assay buffer, 0.75 g of charcoal and 0.25 g of dextran) is added to each reaction. Plates are mixed 8 minutes on an orbital shaker at 4° C. Plates are then centrifuged at 3,000 rpm at 4° C. for 10 minutes. An aliquot of 120 μl of the mix is transferred to another 96-well plate and 175 μl of Wallac Optiphase “Hisafe 3” scintillation fluid is added to each well. Plates are sealed and shaken vigorously on an orbital shaker. After an incubation of 2 hrs, plates are read in a Wallac Microbeta counter. The data is used to calculate an IC50 and % Inhibition at 10 μM. The Kd for ^3H-dexamethasone for GR binding, ^3H-methyltrienolone for AR binding, ^3H-aldosterone for MR binding, or ^3H-methyltrienolone for PR binding, is determined by saturation binding. The IC50 values for compounds are converted to Ki using Cheng-Prusoff equation and the Kd determined by saturation binding assay.
With `CN(C)CCCC1(c2c[nH]c3c(NS(C)(=O)=O)cccc23)CCc2cc(F)ccc21` (centres unmarked) [Example 43, N-{3-[1-(3-Dimethylamino-propyl)-5-fluoro-indan-1-yl]-1H-indol-7-yl}-methanesulfonamide] the Ki was no more than 10000 nM.

Tested on: patients suffering from advanced CHF
Assay: not given
Conditions: in combination with standard CHF therapy; cited from earlier work
For `CC(=O)S[C@@H]1CC2=CC(=O)CC[C@]2(C)[C@H]2CC[C@@]3(C)[C@@H](CC[C@@]34CCC(=O)O4)[C@H]12` [spironolactone], the “reduced cardiac related mortality” value is given as 30% and the “reduced frequency of hospitalization” value is given as 35%.
